Reference: EP4663640A1 (Shanghai Institute of Materia Medica, Chinese Academy of …, priority 2023, dated 2024)

Assays:
[1] = Liver microsome stability test, mouse; assay type: in vitro ADME; settings: Mouse liver microsomes
Description: Calculation of Intrinsic Clearance: Clint = (1000 × slope)/(P); [formula]

mice = test: Marble burial test (antianxiety); assay type: in vivo; settings: for number of buried marbles: test with reduced dosage (Figure 5)
Description: The drug to be tested was dissolved in DMSO: Tween 80: distilled water at a ratio of 2:2:96 (v/v/v), and then administered to mice by gavage at a volume of 10 mL/kg. […] The blank control group was only given 10 mL/kg of the above solvent.
The mouse marble burial test is a behavioral assay used for the screening of antianxiety drugs. It exploits the natural digging behavior of mice in environments such as burrows or escape tunnels and is sensitive to small changes in behavior caused by genetic manipulation, disease, or drug treatment.
A 5cm thick sawdust litter was laid in a 33 cm×24 cm×28 cm carton, and 4×5 black marbles (4 cm apart) with a total of 20 black marbles of 14mm in diameter were neatly placed on the litter. The mouse was put into the carton facing the corner for 30 minutes. After 30 minutes, the mouse was carefully taken out and the number of marbles buried by the mouse was counted. If more than 2/3 of the marble was buried, it was considered a whole marble. First, a blank experiment was conducted. Before the experiment, the mouse was taken to the experimental environment to adapt. After 1 hour, the experiment began. After the experiment, the mouse was returned to the cage and the number of marbles buried by the mouse was counted. On the second day, the mouse was taken to the experimental environment to adapt for 1 hour before the drug was administered. After the drug administration, the marble burying experiment was conducted for […]. After the experiment, the mouse was carefully taken out and returned to the cage to prevent the mouse from escaping violently and affecting the experimental results. After counting, the black marbles were taken out and wiped with alcohol, and the litter was turned over again to remove the smell of the previous mouse to prevent it from affecting the experiment of the next mouse. The marbles were neatly placed for the experiment of the next mouse.

MF % ([1]; metabolic bioavailability): 49.3% | half-life at 1 µM ([1]; pH 7.4, 1µM compound, read-out: Half-life T1/2): 46 min
Compound: Cn1c(=O)n(CCCO)c(=O)c2c1nc(C1(F)CCC(F)(F)CC1)n2Cc1ccc(F)c(Cl)c1 [Example E68, 7-(3-chloro-4-fluorobenzyl)-1-(3-hydroxypropyl)-3-methyl-8-(1,4,4-trifluorocyclohexyl)-3,7-dihydro-1H-purine-2,6-dione]
Stability Evaluation [1]: Medium (30%<MF%<70%, medium metabolic stability) | number of buried marbles (mice; oral 0.03 mg/kg): can reduce | number of buried marbles (mice; oral 0.1 mg/kg, better than the same dose of HC-070): more obvious | number of marbles buried by mice (mice; oral 0.1-1 mg/kg, before versus after administration (Figure 3)): significantly reduced
